A word on the MIC: it is the lowest concentration that inhibits growth of the organism. A high value points to weaker potency.

This is an account of results in DBAASP.

In brackets after ≈: the same amount, converted by molar mass.

Test systems include Staphylococcus aureus; Pseudomonas aeruginosa; Staphylococcus aureus MR; Escherichia coli; Escherichia coli UB1005; Candida albicans; Acinetobacter baumannii.
What all share (experiment): ≥ marks a high value that may be exact or a test limit, other limits are often not marked, values filed in µg/mL are converted to µM
Test [1] relates to Pseudomonas aeruginosa ATCC 10145.
The subject of test [2] is Pseudomonas aeruginosa H1001.
For test [3], the system named is Enterococcus faecalis ATCC 29212.
For test [4], the system named is Salmonella enterica serovar Typhimurium.
The test system of test [5] is Staphylococcus aureus ATCC 25923.
Test [6] deals with Pseudomonas aeruginosa H103.
The subject of test [7] is Staphylococcus epidermidis.
In test [8] the test system is Escherichia coli ATCC 25922.
The subject of test [9] is Pseudomonas aeruginosa PAO1.

In the case of `CC[C@H](C)[C@H](NC(=O)[C@H](C)NC(=O)[C@H](CC(C)C)NC(=O)[C@H](CCCN=C(N)N)NC(=O)[C@H](CC(C)C)NC(=O)[C@H](C)N)C(=O)N[C@@H](CCCN=C(N)N)C(=O)N[C@@H](CCCCN)C(=O)N[C@@H](CCCN=C(N)N)C(N)=O` [ALRLAIRKR], the MIC is 4.56 µM (≈ 5 µg/mL) with Staphylococcus aureus, 13.7 µM (≈ 15 µg/mL) against Pseudomonas aeruginosa, no less than 43.8 µM in the test on Staphylococcus aureus MR and 3.65 µM (≈ 4 µg/mL) in the test on Escherichia coli.

For `CC[C@H](C)[C@H](NC(=O)[C@H](C)NC(=O)[C@H](CC(C)C)NC(=O)[C@H](CC(C)C)NC(=O)[C@H](Cc1c[nH]c2ccccc12)NC(=O)[C@H](C)N)C(=O)N[C@@H](CCCN=C(N)N)C(=O)N[C@@H](CCCCN)C(=O)N[C@@H](CCCN=C(N)N)C(N)=O` [AWLLAIRKR], the MIC in the test with Staphylococcus aureus came to 2.66 µM (≈ 3 µg/mL); against Pseudomonas aeruginosa it was 3.55 µM (≈ 4 µg/mL); against Staphylococcus aureus MR it was 22.2 µM (≈ 25 µg/mL); against Escherichia coli, 4.44 µM (≈ 5 µg/mL).

For `C[C@H](NC(=O)[C@H](C)NC(=O)[C@H](CCCCN)NC(=O)[C@H](CCCCN)NC(=O)[C@H](C)NC(=O)[C@H](Cc1ccccc1)NC(=O)[C@H](CCCCN)NC(=O)[C@H](CCCCN)NC(=O)[C@H](C)NC(=O)[C@H](C)NC(=O)[C@H](CCCCN)NC(=O)[C@H](CCCCN)NC(=O)[C@H](C)NC(=O)[C@H](Cc1ccccc1)NC(=O)[C@@H](N)CCCCN)C(=O)N[C@@H](CCCCN)C(=O)O` [KFAKKAAKKFAKKAAK], the MIC in test [1] is no less than 142 µM.

As for `NCCCC[C@H](NC(=O)[C@H](CCCN=C(N)N)NC(=O)[C@H](Cc1c[nH]c2ccccc12)NC(=O)[C@H](CCCCN)NC(=O)[C@H](Cc1c[nH]c2ccccc12)NC(=O)[C@H](Cc1c[nH]c2ccccc12)NC(=O)[C@H](Cc1cnc[nH]1)NC(=O)[C@H](Cc1ccccc1)NC(=O)[C@@H](N)CCCCN)C(N)=O` [KFHWWKWRK], the MIC in test [2] is no less than 178 µM.

`CC[C@H](C)[C@H](NC(=O)[C@H](CCCCN)NC(=O)[C@H](Cc1c[nH]c2ccccc12)NC(=O)[C@H](CCCCN)NC(=O)[C@@H](N)CCCCN)C(=O)N[C@H](C(=O)N[C@H](C(=O)N[C@H](C(=O)N[C@@H](CCCN=C(N)N)C(=O)N[C@@H](Cc1c[nH]c2ccccc12)C(=O)N[C@@H](CCCN=C(N)N)C(=O)N[C@@H](CCCN=C(N)N)C(N)=O)[C@@H](C)CC)C(C)C)C(C)C` [KKWKIVVIRWRR] displayed an MIC in test [2] of 1.2 µM (≈ 2 µg/mL).

Consider `CC[C@H](C)[C@H](NC(=O)[C@H](C)NC(=O)[C@@H](NC(=O)[C@H](CCCCN)NC(=O)[C@H](CCCCN)NC(=O)[C@H](Cc1cnc[nH]1)NC(=O)[C@@H](NC(=O)[C@H](CCCN=C(N)N)NC(=O)[C@H](CS)NC(=O)[C@@H](N)CC(C)C)C(C)C)[C@@H](C)CC)C(=O)O` [LCRVHKKIAI], for which the MIC in test [2] is no less than 169 µM.

With `CC(C)[C@H](NC(=O)[C@H](CCCN=C(N)N)NC(=O)[C@H](Cc1c[nH]c2ccccc12)NC(=O)[C@H](Cc1c[nH]c2ccccc12)NC(=O)[C@H](Cc1c[nH]c2ccccc12)NC(=O)[C@H](CCCN=C(N)N)NC(=O)[C@H](Cc1c[nH]c2ccccc12)NC(=O)[C@@H](N)CCCN=C(N)N)C(=O)N[C@@H](Cc1ccc(O)cc1)C(=O)O` [RWRWWWRVY], the MIC in test [3] is 3.3 µM (≈ 4.93 µg/mL); against Escherichia coli UB1005 it was 1.6 µM (≈ 2.39 µg/mL); in test [4] it was 3.3 µM (≈ 4.93 µg/mL); in test [5], 3.3 µM (≈ 4.93 µg/mL); against Candida albicans, 13.2 µM (≈ 19.7 µg/mL); in test [6], 13.2 µM (≈ 19.7 µg/mL). In [7], this compound yielded an MIC of 1.6 µM (≈ 2.39 µg/mL).

As to `CC[C@H](C)[C@H](NC(=O)[C@H](CCCN=C(N)N)NC(=O)[C@H](CC(C)C)NC(=O)[C@H](CCC(N)=O)NC(=O)[C@@H](N)C(C)C)C(=O)N[C@@H](CCCN=C(N)N)C(=O)N[C@H](C(=O)N[C@@H](CS)C(=O)N[C@H](C(=O)N[C@H](C(=O)N[C@@H](CCCN=C(N)N)C(=O)N[C@@H](CCCN=C(N)N)C(=O)O)[C@@H](C)CC)C(C)C)C(C)C` [VQLRIRVCVIRR], the MIC in [4] came out at 10.6 µM (≈ 16 µg/mL); in test [5], 10.6 µM (≈ 16 µg/mL); against Staphylococcus aureus, 15 µM (≈ 22.6 µg/mL); with Pseudomonas aeruginosa, 21.2 µM (≈ 32 µg/mL); against Acinetobacter baumannii it was 30 µM (≈ 45.3 µg/mL); in test [8], 10.6 µM (≈ 16 µg/mL). The values for the MIC (in test [9]; in the test on Escherichia coli) were 21.2 µM (≈ 32 µg/mL) and greater than 84.7 µM, respectively.
